Data from patent US9999620B2, “CaMKK-β as a target for treating cancer” (Duke University, priority 2010, dated 2018).

Tests used:
Type in all cases: cell-based, human
[1] = system: AMPK phosphorylation (T172) by CaMKKβ; experiment: Western blot of phospho-AMPK; conditions: STO-609 pretreatment
Method: A, LNCaP cells were pretreated for 1 h+/−30 mM STO-609 prior to overnight treatment+/−10 nM R1881. Cell lysates were then subjected to western blot analysis and subsequent densitometry (right). CaMKKβ levels were normalized to GAPDH. Phospho-CaMKI (p-CaMKI) levels were normalized to total CaMKI. Phospho-AMPK (p-AMPK) levels were normalized to total AMPK. Results are expressed as fold induction/phosphorylation over double vehicle-treated cells+SE (n=3). *, significant changes from vehicle-treated cells. B, LNCaP cells stably expressing either GAL4 or CaMKKβ □were treated overnight+/−10 nM R1881. Cell lysates were then subjected as in A to western blot analysis and densitometry (right). Results are expressed as fold induction/phosphorylation over LNCaP-GAL4 vehicle-treated cells+SE (n=3). *, significant changes from LNCaP-GAL4 vehicle-treated cells. […]
A, VCaP cells were treated for 24 h+/−10 nM R1881. […] Results are expressed as fold induction/phosphorylation over vehicle-treated cells+SE (n=2). *, P<0.05 indicates significant changes from vehicle-treated cells. […]
Western blot analysis. […] For each sample, protein levels were determined by densitometry using the ImageJ software (NIH) and normalizing to indicated controls.

[2] = system: LNCaP cells; experiment: Matrigel extracellular matrix invasion assay; conditions: 1 h +/-30 mM STO-609, overnight +/-10 nM R1881
Method: FIG. 7. CaMKKβ activity in the androgen-mediated migration and invasion of prostate cancer cells. A, LNCaP cells were plated in 96-well plates and grown for 3 d. […] On d 10, cells were lysed and the relative number of cells was measured with the fluorescent DNA binding dye FluoReporter Blue. Each sample was performed in triplicate, and results from a representative experiment are shown. […] Cells were then dissociated and reseeded into the top chamber for a Boyden migration or Matrigel extracellular matrix invasion assay. Fresh medium with the corresponding treatments was added to the top and bottom chambers while either no chemoattractant or 5% FBS (serum) was added to the bottom chamber. After 16 h, migrated cells were fixed, stained and counted in three different microscopic fields and added together. […] C top, LNCaP cells were transfected with indicated siRNAs. […] D right, LNCaP cells stably expressing either GAL4 (control) or CaMKKβ were subjected to a migration assay as described in B using +/−5% FBS as chemoattractant. The results are expressed as mean+SE (n=3). *, significant changes from LNCaP-GAL4 cells. D left, western blot confirming CaMKKβ […]expression. Migration and invasion assays. Boyden dual chamber migration assays were performed as previously described (4). […]

[3] = system: VCaP cells; experiment: Cell proliferation assay (FluoReporter Blue DNA content); conditions: +/-1 nM R1881 and +/-30 mM STO-609 on d 3, d 5, d 7, read on d 10
Source text: FIG. 6. CaMKKβ activity in androgen-mediated cell migration in prostate cancer cells. […] Cell lysates were then subjected to western blot analysis and subsequent densitometry (right). Phospho-[…]) levels were normalized to total CaMKI. Results are expressed as fold induction/phosphorylation over double vehicle-treated cells+SE (n=2). *, P<0.05 indicates significant changes from vehicle-treated cells. ^#, P<0.05 indicates significant changes from vehicle (no STO-609)-treated cells. B, VCaP cells were plated in 96-well plates and grown for 3 d. […] On d 10, cells were lysed and the relative number of cells was measured with the fluorescent DNA binding dye FluoReporter Blue. Each sample was performed in triplicate, and results from a representative experiment are shown. […] Cells were then dissociated and reseeded into the top chamber for a Boyden dual chamber migration assay. […] After 16 h, migrated cells were fixed, stained with crystal violet and counted in three different microscopic fields and added together. […] Proliferation assays were performed as previously described (12) by measuring the cellular DNA content using the FluoReporter Blue Fluorometric double-stranded DNA Quantitation Kit (Invitrogen) as per the manufacturer's protocol.

[4] = system: CaMKI phosphorylation (T177) by CaMKKβ; experiment: Western blot of phospho-CaMKI (readout of CaMKKβ activity); conditions: for androgen-increased phosphorylation of CaMKI (T177): STO-609 pretreatment
Method: A, LNCaP cells were pretreated for 1 h with vehicle, 10 or 30 mM STO-609 prior to overnight treatment with vehicle, 100 pM or 10 nM R1881. Cell lysates were then subjected to western blot analysis and subsequent densitometry (right). Phospho-CaMKI (p-CaMKI) levels were normalized to total CaMKI. Results are expressed as fold induction/phosphorylation over double vehicle-treated cells+SE (n=2). *, P<0.05 indicates significant changes from vehicle-treated cells. ^#, P<0.05 indicates significant changes from vehicle (no STO-609)-treated cells.
A, LNCaP cells were pretreated for 1 h+/−30 mM STO-609 prior to overnight treatment+/−10 nM R1881. Cell lysates were then subjected to western blot analysis and subsequent densitometry (right). CaMKKβ levels were normalized to GAPDH. Phospho-CaMKI (p-CaMKI) levels were normalized to total CaMKI. Phospho-AMPK (p-AMPK) levels were normalized to total AMPK. Results are expressed as fold induction/phosphorylation over double vehicle-treated cells+SE (n=3). *, significant changes from vehicle-treated cells.

In the case of `O=C(O)c1ccc2c3c1cccc3c(=O)n1c3ccccc3nc21` [STO-609], the “androgen-increased phosphorylation of AMPK (T172)” value ([1]; LNCaP, 10 nM R1881) was “reversed”, the “androgen-increased phosphorylation of AMPK (T172)” value ([1]; VCaP) was “reversed” and the “androgen-mediated invasion through Matrigel extracellular matrix” value [2] was “inhibited androgen-mediated invasion”. The “effect on cell number (androgen-mediated cellular growth)” value [3] was “no significant effect”, the “CaMKKβ activity (phospho-CaMKI levels)” value ([4]; LNCaP, 1 h pretreatment with 10 or 30 mM STO-609, then overnight 100 pM or 10 nM R1881) was “suppressed CaMKKβ activity” and the “androgen-increased phosphorylation of CaMKI (T177)” value ([4]; LNCaP, 10 nM R1881) was “reversed”. The “androgen-increased phosphorylation of CaMKI (T177)” value ([4]; VCaP) was “reversed”.
